Source: ChEMBL document CHEMBL5055665, “Discovery of the Triazolo[1,5-a]Pyrimidine-Based Derivative WS-898 as a Highly Efficacious and Orally Bioavailable ABCB1 Inhibitor Capable of Overcoming Multidrug Resistance” (J Med Chem, 2021)

Tests used:
SW-620 [1] = test: Reversal of resistance to paclitaxel-induced cytotoxicity in human SW-620/AD300 cells assessed as reduction in paclitaxel IC50 at 1 uM preincubated for 4 hrs followed by paclitaxel addition and measured after 72 hrs by MTT assay (reference value: 4.23 +/- 0.50 uM); assay type: functional, cell-based
SW-620 [2] = test: Reversal of resistance to paclitaxel-induced cytotoxicity in human SW-620/AD300 cells assessed as reversal fold at 1 uM preincubated for 4 hrs followed by paclitaxel addition and measured after 72 hrs by MTT assay relative to paclitaxel; assay type: functional; details: time 76 hrs
SW-620 [3] = test: Reversal of resistance to paclitaxel-induced cytotoxicity in human SW-620/AD300 cells assessed as reduction in paclitaxel IC50 at 2 uM preincubated for 4 hrs followed by paclitaxel addition and measured after 72 hrs by MTT assay (reference value: 4.23 +/- 0.50 uM); assay type: functional, cell-based
SW-620 [4] = test: Reversal of resistance to paclitaxel-induced cytotoxicity in human SW-620/AD300 cells assessed as reversal fold at 2 uM preincubated for 4 hrs followed by paclitaxel addition and measured after 72 hrs by MTT assay relative to paclitaxel; assay type: functional; details: time 76 hrs
SW-620 [5] = test: Reversal of resistance to paclitaxel-induced cytotoxicity in human SW-620/AD300 cells assessed as reduction in paclitaxel IC50 at 5 uM preincubated for 4 hrs followed by paclitaxel addition and measured after 72 hrs by MTT assay (reference value: 4.23 +/- 0.50 uM); assay type: functional, cell-based
SW-620 [6] = test: Reversal of resistance to paclitaxel-induced cytotoxicity in human SW-620/AD300 cells assessed as reversal fold at 5 uM preincubated for 4 hrs followed by paclitaxel addition and measured after 72 hrs by MTT assay relative to paclitaxel; assay type: functional; details: time 76 hrs
SW-620 [7] = test: Reversal of resistance to paclitaxel-induced cytotoxicity in human SW-620/AD300 cells assessed as reduction in paclitaxel IC50 at 10 uM preincubated for 4 hrs followed by paclitaxel addition and measured after 72 hrs by MTT assay (reference value: 4.23 +/- 0.50 uM); assay type: functional, cell-based
SW-620 [8] = test: Reversal of resistance to paclitaxel-induced cytotoxicity in human SW-620/AD300 cells assessed as reversal fold at 10 uM preincubated for 4 hrs followed by paclitaxel addition and measured after 72 hrs by MTT assay relative to paclitaxel; assay type: functional; details: time 76 hrs
SW-620 [9] = test: Reversal of resistance to paclitaxel-induced cytotoxicity in human SW-620/AD300 cells assessed as reduction in paclitaxel IC50 at 8 uM preincubated for 4 hrs followed by paclitaxel addition and measured after 72 hrs by MTT assay (reference value: 4.23 +/- 0.50 uM); assay type: functional, cell-based
SW-620 [10] = test: Reversal of resistance to paclitaxel-induced cytotoxicity in human SW-620/AD300 cells assessed as reversal fold at 8 uM preincubated for 4 hrs followed by paclitaxel addition and measured after 72 hrs by MTT assay relative to paclitaxel; assay type: functional; details: time 76 hrs
SW-620 [11] = test: Reversal of resistance to paclitaxel-induced cytotoxicity in human SW-620/AD300 cells assessed as reversal fold at 4 uM preincubated for 4 hrs followed by paclitaxel addition and measured after 72 hrs by MTT assay relative to paclitaxel; assay type: functional; details: time 76 hrs
SW-620 [12] = test: cells; details: Homo sapiens

SMILES: COc1cc(/C=C/C(=O)c2ccc(Nc3cc(C)nc4nc(SCc5nc6ccccc6[nH]5)nn34)cc2)cc(OC)c1OC
- IC50 (SW-620 [1]): 75 nM
- fold change (FC) (SW-620 [2]): 56.4

SMILES: Cc1cc(Nc2ccc(C(=O)/C=C/c3ccc(C(F)(F)F)cc3)cc2)n2nc(SCc3nc4ccccc4[nH]3)nc2n1
- IC50 (SW-620 [3]): 1850 nM
- fold change (FC) (SW-620 [4]): 2.29

SMILES: Cc1cc(Nc2ccc(C(=O)/C=C/c3ccc4ccccc4c3)cc2)n2nc(SCc3ccccc3C(F)(F)F)nc2n1
- IC50 (SW-620 [5]): 1240 nM
- fold change (FC) (SW-620 [6]): 3.41

SMILES: Cc1cc(Nc2ccc(C(=O)/C=C/c3cccc(Cl)c3)cc2)n2nc(SCc3nc4ccccc4[nH]3)nc2n1
- IC50 (SW-620 [3]): 400 nM
- fold change (FC) (SW-620 [4]): 10.58

SMILES: Cc1cc(Nc2ccc(C(=O)/C=C/c3ccc4ccccc4c3)cc2)n2nc(SCC(=O)c3ccccc3)nc2n1
- IC50 (SW-620 [3]): 190 nM
- fold change (FC) (SW-620 [4]): 22.26

SMILES: Cc1cc(Nc2ccc(C(=O)/C=C/c3ccc(F)cc3)cc2)n2nc(SCc3nc4ccccc4[nH]3)nc2n1
- IC50 (SW-620 [3]): 85 nM
- fold change (FC) (SW-620 [4]): 49.8

SMILES: CCCSc1nc2nc(C)cc(Nc3ccc(C(=O)/C=C/c4ccc5ccccc5c4)cc3)n2n1
- IC50 (SW-620 [7]): 1070 nM
- fold change (FC) (SW-620 [8]): 3.95

SMILES: Cc1ccc(CSc2nc3nc(C)cc(Nc4ccc(C(=O)/C=C/c5ccc6ccccc6c5)cc4)n3n2)cc1
- IC50 (SW-620 [5]): 880 nM
- fold change (FC) (SW-620 [6]): 4.81

SMILES: Cc1cc(Nc2ccc(C(=O)/C=C/c3ccccc3F)cc2)n2nc(SCc3nc4ccccc4[nH]3)nc2n1
- IC50 (SW-620 [3]): 250 nM
- fold change (FC) (SW-620 [4]): 16.92

SMILES: O=C(/C=C/c1ccc2ccccc2c1)c1ccc(Nc2c3c(nc4ncnn24)CCC3)cc1
- IC50 (SW-620 [9]): 1050 nM
- fold change (FC) (SW-620 [10]): 4.03

SMILES: Cc1cc(Nc2ccc(C(=O)/C=C/c3ccc4ccccc4c3)cc2)n2nc(SCc3ccc(Br)cc3)nc2n1
- IC50 (SW-620 [5]): 370 nM
- fold change (FC) (SW-620 [6]): 11.43

SMILES: Cc1cc(Nc2ccc(C(=O)/C=C/c3ccc4ccccc4c3)cc2)n2nc(SCc3cccc(Br)c3)nc2n1
- IC50 (SW-620 [5]): 270 nM
- fold change (FC) (SW-620 [6]): 15.67

SMILES: Cc1cc(Nc2ccc(C(=O)/C=C/c3cccc(F)c3)cc2)n2nc(SCc3nc4ccccc4[nH]3)nc2n1
- IC50 (SW-620 [3]): 590 nM
- fold change (FC) (SW-620 [4]): 7.17

SMILES: Cc1cc(Nc2ccc(C(=O)/C=C/c3ccc4ccccc4c3)cc2)n2nc(SCc3ccccc3Br)nc2n1
- IC50 (SW-620 [5]): 420 nM
- fold change (FC) (SW-620 [6]): 10.07

SMILES: C#CCSc1nc2nc(C)cc(Nc3ccc(C(=O)/C=C/c4ccc5ccccc5c4)cc3)n2n1
- fold change (FC) (SW-620 [11]): 4.86
- IC50 (SW-620 [12]): 870 nM

SMILES: Cc1cc(Nc2ccc(C(=O)/C=C/c3ccc(OC(F)(F)F)cc3)cc2)n2nc(SCc3nc4ccccc4[nH]3)nc2n1
- IC50 (SW-620 [3]): 220 nM
- fold change (FC) (SW-620 [4]): 19.5

SMILES: Cc1cc(Nc2ccc(C(=O)/C=C/c3ccc(Br)cn3)cc2)n2nc(SCc3nc4ccccc4[nH]3)nc2n1
- IC50 (SW-620 [1]): 110 nM
- fold change (FC) (SW-620 [2]): 39.09

SMILES: COc1ccc(CSc2nc3nc(C)cc(Nc4ccc(C(=O)/C=C/c5ccc6ccccc6c5)cc4)n3n2)cc1
- IC50 (SW-620 [5]): 250 nM
- fold change (FC) (SW-620 [6]): 16.92

SMILES: Cc1cc(Nc2ccc(C(=O)/C=C/c3ccc4ccccc4c3)cc2)n2nc(SCc3ccc(C(F)(F)F)cc3)nc2n1
- IC50 (SW-620 [7]): 1450 nM
- fold change (FC) (SW-620 [8]): 2.92

SMILES: Cc1cc(Nc2ccc(C(=O)/C=C/c3ccc4ccccc4c3)cc2)n2nc(SCc3ccc(Cl)cc3)nc2n1
- IC50 (SW-620 [5]): 570 nM
- fold change (FC) (SW-620 [6]): 7.42

SMILES: Cc1cc(Nc2ccc(C(=O)/C=C/c3ccc(Br)cc3)cc2)n2nc(SCc3nc4ccccc4[nH]3)nc2n1
- IC50 (SW-620 [3]): 290 nM
- fold change (FC) (SW-620 [4]): 14.59

SMILES: Cc1cc(Nc2ccc(C(=O)/C=C/c3ccc(-n4cccn4)cc3)cc2)n2nc(SCc3nc4ccccc4[nH]3)nc2n1
- IC50 (SW-620 [3]): 340 nM
- fold change (FC) (SW-620 [4]): 12.44

SMILES: COc1cc(OC)c(/C=C/C(=O)c2ccc(Nc3cc(C)nc4nc(SCc5nc6ccccc6[nH]5)nn34)cc2)c(OC)c1
- IC50 (SW-620 [1]): 260 nM
- fold change (FC) (SW-620 [2]): 16.27

SMILES: Cc1cc(Nc2ccc(C(=O)/C=C/c3ccc4c(c3)OC(F)(F)O4)cc2)n2nc(SCc3nc4ccccc4[nH]3)nc2n1
- IC50 (SW-620 [1]): 240 nM
- fold change (FC) (SW-620 [2]): 17.63
